Tests used:
[1] = test system: Cha o 1-specific T cell line; experiment: Reactivity of Cha o 1-specific T cell line; assay type: cell-based, human; settings: from patients with hinoki pollinosis
Source text: (§1) Two peptides (Cha o 1 #8-Cry j 1 #22 core, Cha o 1 #32-Cry j 1 #22 core) were synthesized by joining Peptide No. 8 (p71-90: […] SEQ ID NO. 11) which is a T cell epitope of hinoki pollen allergen Cha o 1 (Japanese Patent Application N. Hei. 8-15327), or Peptide No. 32 ([…]: […] SEQ ID NO. 12) to Cry j 1 #22 core sequence “FIKRVSNVI”(SEQ ID NO. 7) obtained in Example 14 using a peptide synthesizer (PSSM-8, Shimadzu Seisakusho Ltd.). An RR sequence was inserted between Cha o 1 #8 and Cry j 1 #22 core and between Cha o 1 #32 and Cry j 1 #22 core, that is, Cha o 1 #8-Cry j 1 #22 core (SEQ NO: 4) and Cha o 1 #32-Cry j 1 #22 core (SEQ NO: 5).
(§2) A Cry j 1-specific T cell line and a Cha o 1-specific T cell line were prepared from the patients with cedar pollinosis and hinoki pollinosis, respectively. […] However, these T cell lines all react with the multi-epitope peptide of SEQ NO: 4 and with the multi-epitope peptide of SEQ NO: 5.

[2] = test system: Cry j 1-specific T cell line; experiment: Reactivity of Cry j 1-specific T cell line; assay type: cell-based, human; settings: from patients with cedar pollinosis
Source text: as §1, §2

[3] = test system: T cell clone PJ7-9; experiment: Proliferation response and cytokine production of T cell clone PJ7-9 to analog peptides; assay type: cell-based, human; settings: unsubstituted 13-residue peptide regarded as 100%
Source text: Two clones, PJ7-9 and PB10-18, were employed to see if the activity of T cells can be altered by substituting the amino acids of T cell epitope peptide of the Cry j 1 #22 core. T cell clones PJ 7-9 and PB10-12 which react with Cry j 1 Peptide No. 22 p106-120 are restricted by DRB5*0101 and recognize the nine residues of the Cry j 1 #22 core. Each of the nine amino acids residues in the peptides p108-120 (VFIKRVSNVIIHG SEQ ID NO. 13) of 13 residues including the nine residues were substituted with an homologous amino acid and a non-homologous amino acid to produce analog peptides (FIGS. 17 and 18). The reactivity of T cell clones PJ 7-9 and PB 10-18 with these analog peptides was examined in terms of the uptake of [^3H] thymidine. The concentration of cytokine in the reaction solution was measured using a cytokine assay kit manufactured by R & D Systems. The production of IFN-γ, IL-4, IL-2, and IL-5 in the supernatant and the uptake of [^3H] thymidine obtained by reacting the peptide of 13 residues with no amino acid substitution were regarded as 100%. […] Accordingly, the amino acids located in these positions are considered to be important for forming the complex of HLA and T cell receptor molecules via the peptide. […] For the PB 10-18 clone, the uptake of [3H] thymidine is suppressed by substitution of amino acid No. 1, 2, 3, 4, 6, 7, or 8 of Cry j 1 #22 core. The amino acids located in these positions are considered to be important for forming the complex of HLA and T cell receptor molecules via the peptide. It is further observed that the IL-2 production is suppressed by substitution of amino acid No. 6, 7, or 8, as compared to IL-5 production (FIG. 18).

[4] = test system: T cell clones; experiment: Recognizing the T cell epitopes in the multi-epitope peptide C.A.#4 by T cell clones; assay type: cell-based, human; settings: C.A.#4 10 μg/ml
Description: The antigenic peptide constituting the multi-epitope peptide C.A.#4 obtained in Example 6 was examined to determine if the antigenic peptide actually functions as a T cell epitope.
On a 96-well micro culture plate, a mixture of 5×10^4 cells of the autologous B cell line previously treated with mitomycin C and 2×10^4 cells of the T cell clone was incubated for 2 days in 0.2 ml 15% serum-supplemented RPMI-1640 medium, together with, as an antigen, either 50 μg/ml of Cry j 1 and 2 μg/ml of Cry j 2, each antigenic peptide constituting the multi-epitope peptide C.A.#4 or 10 μg/ml C.A.#4 multi-epitope peptide produced by gene expression. After 0.5 μCi [^3H] thymidine was added to the medium, incubation was continued for a further 16 hours. After the cells were harvested on a glass filter using a cell harvester, the level of [^3H] thymidine taken up into the cells was determined using a liquid scintillation counter.

[5] = test system: peripheral lymphocytes; experiment: Proliferation response of peripheral lymphocytes induced by multi-epitope peptide; assay type: cell-based, human
Description: Peripheral lymphocytes derived from the patients with cedar pollinosis or from healthy subjects were suspended in RPMI-1640 culture medium supplemented with 10% human sera. The suspension was distributed in each well of a 96-well culture plate with a round bottom in a concentration of 2.5×10^5 cells/200 μl. The multi-epitope peptide represented by SEQ NO: 1, either Cry j 1 or Cry j 2, was added to each well to a final concentration of 0.001 to 20 μg/ml of the multi-epitope peptide, 50 μg/ml of Cry j 1 or 2 μg/ml of Cry j 2. The plate was incubated for 6 days. After 0.5 μCi [^3H] thymidine was added to the medium, incubation was continued for a further 16 hours. After the cells were harvested on a glass filter using a cell harvester, the level of [^3H] thymidine taken up into the cells was determined using a liquid scintillation counter.
Peripheral lymphocytes from 17 patients with cedar pollinosis and two healthy subjects were stimulated by 10 μg/ml of the multi-epitope peptide to evaluate T cell response. […] In the 17 patients, a maximum [^3H] thymidine uptake of 9,652 cpm was observed. When [^3H] thymidine uptake of peripheral lymphocytes without antigen stimulation is regarded as 1, the uptake of [^3H] thymidine by peripheral lymphocytes in the presence of an antigen is expressed by a stimulation index (SI). Upon identification of T cell epitopes, SI>2 is regarded to be positive. Similarly, SI>2 is judged to be proliferation responsive to the peptide. […] From the results, the peptide-based immunotherapy is effective when administered to 76.5% of the cedar pollinosis patients.

[6] = test system: human IgE antibody; experiment: Reactivity of the multi-epitope peptides with human IgE antibody (fluorescence plate assay); assay type: binding; settings: 21 tested patients with cedar pollinosis
Description: The six multi-epitope peptides (C.A.#1 through C.A.#6) obtained in Example 6 were dissolved in 0.2 M acetate buffer solution (pH 4.5). The solution was dispensed in quantities of 0.1 ml/well in a black plate (manufactured by Dainihon Pharmaceutical Co., Ltd.) then allowed to stand at 4° C. overnight. After the antigen solution was removed, the wells were washed three times with a washing solution and the serum (4-fold dilution) from 29 patients with cedar pollinosis and healthy subjects were each added to separate wells. The system was then reacted at 37° C. for 4 hours. After the sera were removed, the wells were washed three times with a washing solution then reacted with anti-human IgE antibody (made by Pharmacia Inc.) at room temperature overnight. After washing three times with a washing solution, a substrate solution containing 0.1 mM 4-methylumbelliferyl-, β-D-galacto-pyranoside/0.01 M phosphate buffer (pH 7.0), 0.1 M NaCl, 1 mM MgCl2, 0.1% NaN, and 0.1% BSA was added, and the solution was incubated at 37° C. for 2 hours. A solution of 0.1 M glycine/NaOH (pH 10.3) was added to the wells to terminate the reaction. Fluorescent intensity was measured using a fluorophotometer (Labsystems). For positive control to each multi-epitope peptide, biotin-labeled rabbit anti-d epitope IgG and peroxidase-labeled streptoavidin (made by Pierce Inc.) were reacted.

SEQ NO: 5: Cha o 1 #32 joined to Cry j 1 #22 core with an RR sequence inserted (SSGKNEGTNIYNNNEAFKVERRFIKRVSNVI; listed as Cryptomeria japonica)
reactivity of Cha o 1-specific T cell line [1]: react with | reactivity of Cry j 1-specific T cell line [2]: react with

IFSKNLNIKLNMPLYIAGNK [Cha o 1 #8]
reactivity of Cha o 1-specific T cell line [1]: reacts with | reactivity of Cry j 1-specific T cell line [2]: does not react with

SSGKNEGTNIYNNNEAFKVE [Cha o 1 #32]
reactivity of Cha o 1-specific T cell line [1]: reacts with | reactivity of Cry j 1-specific T cell line [2]: does not react with

SEQ NO: 4: Cha o 1 #8 joined to Cry j 1 #22 core with an RR sequence inserted (IFSKNLNIKLNMPLYIAGNKRRFIKRVSNVI; listed as Cryptomeria japonica)
reactivity of Cha o 1-specific T cell line [1]: react with | reactivity of Cry j 1-specific T cell line [2]: react with

FIKRVSNVI [Cry j 1 #22 core]
reactivity of Cha o 1-specific T cell line [1]: does not react with | reactivity of Cry j 1-specific T cell line [2]: reacts with

SIKRVSNVI (listed as Cryptomeria japonica) [Cry j 1 #22 core with the first amino acid F substituted with S]
IFN-γ production [3]: marked increase | IL-2 production [3]: marked increase | uptake of [3H] thymidine [3]: no change

B1: a-Arg-Arg-b-Arg-Arg-d-Arg-Arg-e-Arg-Arg-c (peptide)
peptide: KSMKVTVAFNQFGPNRRPCVFIKRVSNVIIHGRRAPRDSPNTDGIDIFASKNFHRRKDIKLSDISLKLTSGKIASCRRPCQPHFTFKVDGIIA
notes: produced by gene expression
proliferation response of T cell clone PB14-19 (recognizes Cry j2 p341-355) [4]: somewhat weak | proliferation response of the T cell clones recognizing the respective epitope ([4]; clones PB8-3, PB8-34, PB4-22, PB14-5, PB14-3): comparable to that of each of the peptides

B2: SEQ NO: 1: multi-epitope peptide containing selected T cell epitopes of Cry j 1 and Cry j 2 joined via Arg-Arg (peptide, listed as Cryptomeria japonica)
chain: MKVTVAFNQFGPNRRVFIKRVSNVIIHGRRIDIFASKNFHLQKNTIGTGRRISLKLTSGKIASRRVDGIIAAYQNPASWK
patients with proliferation response (SI>2) ([5]; 13 out of the 17 patients, 10 μg/ml): 76.5% | maximum [3H] thymidine uptake ([5]; 17 patients, 10 μg/ml): 9,652 cpm | proliferation response of peripheral lymphocytes ([5]; one patient and two healthy subjects, 0.001 to 20 μg/ml): no proliferation response | patients whose peripheral lymphocytes showed proliferation response ([5]; six patients with cedar pollinosis, 0.001 to 20 μg/ml): five out of six | T cell proliferation response of peripheral lymphocytes from healthy subjects ([5]; two healthy subjects, 10 μg/ml): No response to T cell proliferation was observed

B3: SEQ NO: 2: joining p213-225 and p108-120 of Cry j 1, p182-200 and p79-98 of Cry j 2, p80-95 of Cry j 1, p66-80 of Cry j 1 (peptide, listed as Cryptomeria japonica)
chain: MKVTVAFNQFGPNRRVFIKRVSNVIIHGRRIDIFASKNFHLQKNTIGTGRRWKNNRIWLQFAKLTGFTLMGRRLKMPMYIAGYKTFDGRRVDGIIAAYQNPASWK
stimulation of peripheral lymphocyte samples ([5]; 21 tested patients with cedar pollinosis): stimulated all the peripheral lymphocyte samples | reaction with the IgE antibody of the patients [6]: did not react
